Test results reported in patent US20220145264A1, “CULTURE MEDIUM FOR MAMMALIAN EXPANDED POTENTIAL STEM CELLS, COMPOSITION, AND METHODS THEREOF” (THE UNIVERSITY OF HONG KONG, priority 2019, published 2022).

Experiments:
[1] = test system: NANOS3-H2BmCherry reporter pEPSCs^Emb; assay: Induction of pPGCLCs from NANOS3-H2BmCherry reporter pEPSCs (EBs, FACS); format: cell-based, porcine; details: inhibition of BMP2/4 signaling in EB culture
Description: To analyse the contribution of donor mCherry^+ porcine EPSCs in day 25-27 chimeras, the half fetuses were dissected into small pieces representing several body parts (head, trunk and tail). The dissected tissues and placenta were digested with 1.0 mg/ml collagenase IV (Thermo Fisher Scientific, Cat. No. 17104019) for 1-3 hours at 37° C. on a shaker. A pipette was used to blow the tissue blocks and dissociate them into single cells. The dissociated cells were filtered with a 35 μm nylon mesh (Corning, Cat. No. 352235) to remove tissues clumps. After centrifugation, the cells were fixed using Fixation Medium according to the manufacturers' manual (BD Cytofix, Cat. No. 554655) and the washed cells were stored at 4° C. in PBS supplemented with 0.1% NaN3 (Sigma, Cat. No. 199931) and 5% FBS (Gibco, Cat. No. 10270) before analysed with flow cytometry. All the samples were analysed using BD LSR Fortessa cytometer. 561 nm (610/20 bandpass filter) and 488 nm (525/50 bandpass filter) channels were used to detect mCherry and excluded autofluorescence. PGC EBs were trypsinized with 0.25% trypsin/EDTA Gibco, Cat. No. 25500-054) at 37° C. for 15 mins and stained with PerCP-Cy5.5 conjugated anti-TNAP antibody. 561 nm (610/20 bandpass filter) and 488 nm (710/50 bandpass filter) channels were used to detect NANOS3-H2BmCherry^+/TNAP^+ cells. FACS data were analysed by Flowjo software. […]

pEPSCs^Emb = assay: Requirement of individual culture components for pEPSCs (RT-qPCR, AP+ colony formation); format: cell-based, porcine; details: withdrawal from medium, porcine EPSCs
Description: (§1) Porcine and human EPSC cultures were routinely maintained on STO feeders. STO feeder plates were prepared 3-4 days before passaging by thawing and plating the mitomycin C inactivated STO cells on 0.1% gelatinised plates at the density of ˜1.1×10^4 cells/cm^2. Porcine/human EPSC cells were maintained on STO feeder layers and enzymatically passaged every 3-5 days by a brief PBS wash followed by treatment for 3-5 minutes with 0.25% trypsin/EDTA (Gibco, Cat. No. 25500-054). The cells were dissociated and centrifuged (300 g×5 minutes) in M10 medium. M10: knockout DMEM (Gibco, Cat. No. 10829-018), 10% FBS (Gibco, Cat. No. 10270), 1× Glutamine Penicillin-Streptomycin (Thermo Fisher Scientific, Cat. No. 11140050) and 1×NEAA (Thermo Fisher Scientific, Cat. No. 10378-016). After removing supernatant, the porcine/human EPSCs were re-suspended and seeded in pEPSCM/hEPSCM supplemented with 5 μM ROCK inhibitor Y-27632 (Tocris, Cat. No. 1254). 5% FBS (Gibco, Cat. No. 10270) and 10% KnockOut Serum Replacement (KSR) (Gibco, Cat. No. 10828028) were added in pEPSCM and hEPSCM respectively to improve cells survive. 12-24 hours later, medium was switched to pEPSCM/hEPSCM only. Both pEPSCM and hEPSCM are N2B27 based media. N2B27 basal media (500 ml) was prepared by inclusion of the following components: 482.5 ml DMEM/F-12 (Gibco, Cat. No. 21331-020), 2.5 ml N2 supplement (Thermo Fisher Scientific, Cat. No. 17502048), 5 ml B27 supplement (Thermo Fisher Scientific, Cat. No. 17504044), 5 ml 1× Glutamine Penicillin-Streptomycin (Thermo Fisher Scientific, Cat. No. 11140-050), and 5 ml 1×NEAA (Thermo Fisher Scientific, Cat. No. 10378-016), 0.1 mM 2-mercaptoethanol (Sigma, Cat. No. M6250). pEPSCM (500 ml) was generated by adding the following small molecules and cytokines into 500 ml N2B27 basal media: 0.2 μM CHIR99021(GSK3i, TOCRIS, Cat. No. 4423), 1 μM WH-4-023 (SRC inhibitor, TOCRIS, Cat. No. 5413), 2.5 μM XAV939 (Sigma, Cat. No. X3004) or 2.5 μM IWR-1 (TOCRIS, Cat. No. 3532), […] Vitamin C (Sigma, Cat. No. 49752-100G), 10 ng/ml LIF (Stem Cell Institute, University of Cambridge. SCI) and 20 ng/ml ACTIVIN (SCI). hEPSCM (500 ml) was generated by adding the following components into 500 ml N2B27 basal media: 1.0 μM CHIR99021(GSK3 inhibitor, TOCRIS, Cat. No. 4423), 0.5 μM A-419259 (SRC inhibitor, TOCRIS, Cat. No. 3914), 2.5 μM XAV939 (Sigma, Cat. No. X3004), […] Vitamin C (Sigma, Cat. No. 49752-100G), 10 ng/ml LIF (SCI). Although both targeting SRC family kinases (SFKs), WH-4-023 and A419259 were preferred for porcine and human EPSCs, respectively. […] The concentrations of CHIR99021 for porcine and human EPSC cultures are 0.2 μM and 1.0 μM, respectively. […] 0.25 μM SB 590885 (BRAF inhibitor, R&D, Cat. No. 2650) and 2.0 μM SP600125 ([…], TOCRIS, Cat. No. 1496) were included to improve porcine and human EPSC cultures, but they were not essential for the routine maintenance of porcine and human EPSCs. All cell cultures in this paper were performed under conditions of 37° C. and 5% CO2 unless stated otherwise.
(§2) Total RNA was isolated using an RNeasy Mini Kit (Qiagen, Cat. No. 74106) for cultured cells or RNeasy Micro Kit (Qiagen, Cat. No. 74034) for sorted NANOS3-mCherry^+ cells. RNA was subsequently quantified and treated with gDNA WipeOut to remove genomic DNA. Complementary DNA (cDNA) was prepared using a QuantiTect Reverse Transcription Kit (Qiagen, Cat. No. 205311). RT-qPCR primers or TaqMan Gene Expression Assays (Life Technologies) are listed in Supplementary Table 10 and 11. ABsolute Blue qPCR ROX Mix (ABgene, Cat. No. AB4138B) were used for probe based qPCR assays and SYBR Green ROX qPCR Mastermix (Qiagen, Cat. No. 330523) were used for primer based qPCR assays. All qPCR reactions were performed on ABI 7900 HT Sequence Detection System (Life Technologies). Information on all primers and probes used for qPCR analysis are provided in Supplementary Table 10 and 11. Gene expression was determined relative to GAPDH using the […]. […]

canonical Wnt signalling [2] = assay: TOPflash luciferase assay in human EPSCs; format: cell-based
Description: (§3) For the TOPflash assay, 2.0×10^6 cells were transfected with 10 μg TOPflash plasmid. 5 μg pRL-TK (Renilla) vectors were also transfected for normalization. Cells were split 1:9 into a 24-well plate in pEPSCM and hEPSCM with or without XAV939 (WNTi, 2.5 μM, Cat. No. X3004) for 48 h. Cell lysates were collected for luciferase assays. For determining the regulation pattern of Oct4 expression in porcine EPSCs, 10 μg reporter constructs were electroporated into 1.5×10^6 pEPSCs with 5 μg pRL-TK. Assays were performed 48 h later. All luciferase assays were performed using the Dual-Glo Luciferase Assay System (Promega, Cat. No. E2920).

H1-EPSCs = assay: Requirement of individual culture components for hEPSCs (RT-qPCR, AP+ colony formation); format: cell-based, human; details: withdrawal from medium, human EPSCs
Description: as §1, §2

AXIN1 [3] = assay: Western blot analysis of AXIN1 in porcine EPSCs; format: cell-based
Description: (§4) Whole-cell extracts were prepared from cells with indicated treatments in lysis buffer composed of 50 mM Tris-HCl (pH 7.5), 0.15M NaCl, 0.1% SDS, 1% Triton X-100, 1% sodium deoxycholate and complete mini EDTA free protease inhibitor cocktail (Roche Applied Science, Cat. No. 11836170001). The cells for the experiment were collected from the same batch of culture when the culture had reached 70-80% confluence. The biological replicates were included to allow the meaningful conclusions. 10 μg protein were used for electrophoresis and transferred to nitrocellulose membranes. Membranes were blocked with 5% milk and treated with antibodies. Primary antibodies of mouse or rabbit anti AXIN1, SMAD2/3, p-SMAD2/3 and ALPHA-TUBULIN were used. Horseradish peroxidase-conjugated secondary antibodies against rabbit or mouse IgG were added. After antibody treatment, blots were developed using ECL Western Blotting Detection System (Thermo Fisher Scientific, Cat. No. 32106). The antibodies used in these experiments is provided in Supplementary Table 9.

AXIN1 [4] = assay: Western blot analysis of AXIN1 in human EPSCs; format: cell-based
Description: as §4

canonical Wnt signalling [5] = assay: TOPflash luciferase assay in porcine EPSCs; format: cell-based
Description: as §3

Compound | formation of mCherry+/TNAP+ cell clusters [1] | state of EPSCs on withdrawal of the compound (pEPSCs^Emb) | canonical WNT activities (canonical Wnt signalling [2]; human EPSCs) | TOPflash activity (canonical Wnt signalling [2]; removing XAV939 from hEPSCM for 5 days) | state of EPSCs on withdrawal of the compound (H1-EPSCs) | AXIN1 protein content (AXIN1 [3]) | AXIN1 protein content (AXIN1 [4]) | canonical WNT activities (canonical Wnt signalling [5]; porcine EPSCs) | TOPflash activity (canonical Wnt signalling [5]; removing XAV939 from pEPSCM for 5 days)
c1ccc2c(-c3cnn4cc(-c5ccc(N6CCNCC6)cc5)cnc34)ccnc2c1 [LDN-193189] | abrogated |  |  |  |  |  |  |  | 
Oc1nc(-c2ccc(C(F)(F)F)cc2)nc2c1CSCC2 [XAV939] |  | collapse and differentiation | reduced | substantially increased | collapse and differentiation | enhanced | enhanced | reduced | substantially increased
